Values joined by “and” are separate entries in the source; they are usually repeats but may differ in a detail not shown here. Equal values may be shown once. Inconclusive results and toxic doses are left out. Rule as the data show it: active = T/C of 150% or more; inactive = T/C below 125%.
Tested on: L1210 leukemia ip in BDF1 mice, survival T/C
Experiment: NCI In Vivo Anticancer Drug Screen. Data for tumor model L1210 Leukemia (intraperitoneal) in B6D2F1 (BDF1) mice
Settings: endpoint: mean survival time, higher = longer survival
Method in brief: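 Tumor cells were implanted, animals were treated, and survival was followed. The result divides the treated measurement by the vehicle-control measurement.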

[1] = dose: 100.0 mg/kg/injection, schedule: Q01DX001 (ip), vehicle: saline
[2] = dose: 100.0 mg/kg/injection, schedule: Q01DX009 (ip), vehicle: other
[3] = dose: 200.0 mg/kg/injection, schedule: Q01DX001 (ip), vehicle: saline
[4] = dose: 200.0 mg/kg/injection, schedule: Q01DX009 (ip), vehicle: other
[5] = dose: 400.0 mg/kg/injection, schedule: Q01DX001 (ip), vehicle: saline
[6] = dose: 400.0 mg/kg/injection, schedule: Q01DX009 (ip), vehicle: other
[7] = dose: 50.0 mg/kg/injection, schedule: Q01DX009 (ip), vehicle: saline with Tween-80
[8] = dose: 100.0 mg/kg/injection, schedule: Q01DX009 (ip), vehicle: saline with Tween-80
[9] = dose: 200.0 mg/kg/injection, schedule: Q01DX009 (ip), vehicle: saline with Tween-80
[10] = dose: 100.0 mg/kg/injection, schedule: Q04DX003 (ip), vehicle: saline
[11] = dose: 200.0 mg/kg/injection, schedule: Q04DX003 (ip), vehicle: saline
[12] = dose: 200.0 mg/kg/injection, schedule: Q04DX002 (ip), vehicle: Klucel (hydroxypropylcellulose) (HPC)
[13] = dose: 100.0 mg/kg/injection, schedule: Q01DX009 (ip), vehicle: Klucel (hydroxypropylcellulose) (HPC)
[14] = dose: 200.0 mg/kg/injection, schedule: Q01DX009 (ip), vehicle: Klucel (hydroxypropylcellulose) (HPC)
[15] = dose: 400.0 mg/kg/injection, schedule: Q01DX009 (ip), vehicle: Klucel (hydroxypropylcellulose) (HPC)

Measured: T/C

C1CC2CC1C1OC21 (stereo not given)
inactive: dose: 50.0 mg/kg/injection, schedule: Q01DX001 (ip), vehicle: saline 103 % of control | [1] 100 % of control | [2] 100 % of control | [3] 105 % of control | [4] 101 % of control | [5] 103 % of control | [6] 94 % of control

CSCC(NC(=O)OCc1ccccc1)C(=O)O (stereo not given)
inactive: [7] 111 % of control | [8] 111 % of control | [9] 101 % of control

Cc1ccc(/C=N\N=C\c2ccc(C)cc2)cc1
inactive: [8] 96 % of control | [9] 91 % of control

Brc1ccc2c(c1)-c1cc(Br)ccc1C2
inactive: dose: 50.0 mg/kg/injection, schedule: Q04DX002 (ip), vehicle: saline with Tween-80 95 % of control | dose: 100.0 mg/kg/injection, schedule: Q04DX002 (ip), vehicle: saline with Tween-80 100 % of control | dose: 200.0 mg/kg/injection, schedule: Q04DX002 (ip), vehicle: saline with Tween-80 103 % of control | dose: 400.0 mg/kg/injection, schedule: Q04DX002 (ip), vehicle: saline with Tween-80 95 % of control

O=[N+]([O-])c1ccc2c(c1)CCCC2
inactive: [2] 98 % of control | dose: 100.0 mg/kg/injection, schedule: Q04DX003 (ip), vehicle: other 105 % of control | [4] 104 % of control | dose: 200.0 mg/kg/injection, schedule: Q04DX003 (ip), vehicle: other 96 % of control | [6] 116 % of control | dose: 400.0 mg/kg/injection, schedule: Q04DX003 (ip), vehicle: other 92 % of control

CN(C)C(C)(C)CNc1ccc(C(=O)O)cc1
inactive: dose: 6.0 mg/kg/injection, schedule: Q01DX009 (ip), vehicle: saline 96 % of control | dose: 12.0 mg/kg/injection, schedule: Q01DX009 (ip), vehicle: saline 97 % of control | dose: 25.0 mg/kg/injection, schedule: Q01DX009 (ip), vehicle: saline 100 % of control and 98 % of control | dose: 50.0 mg/kg/injection, schedule: Q01DX009 (ip), vehicle: saline 109 % of control | [10] 98 % of control | [11] 101 % of control

COc1ccc2c3c1OC1C(O)=CCC4[C@H](C2)N(C)CC[C@@]314 (stereo not given in full)
inactive: [1] 95 % of control | [3] 106 % of control

Cc1cc(N)c2ccccc2[n+]1CCCCCCCCCC[n+]1c(C)cc(N)c2ccccc21
inactive: dose: 0.75 mg/kg/injection, schedule: Q01DX009 (ip), vehicle: Klucel (hydroxypropylcellulose) (HPC) 100 % of control | dose: 1.5 mg/kg/injection, schedule: Q01DX009 (ip), vehicle: Klucel (hydroxypropylcellulose) (HPC) 109 % of control | dose: 1.5 mg/kg/injection, schedule: Q04DX003 (ip), vehicle: Klucel (hydroxypropylcellulose) (HPC) 103 % of control | dose: 3.0 mg/kg/injection, schedule: Q01DX009 (ip), vehicle: Klucel (hydroxypropylcellulose) (HPC) 119 % of control and 124 % of control | dose: 3.0 mg/kg/injection, schedule: Q04DX003 (ip), vehicle: Klucel (hydroxypropylcellulose) (HPC) 110 % of control | dose: 6.0 mg/kg/injection, schedule: Q04DX003 (ip), vehicle: Klucel (hydroxypropylcellulose) (HPC) 116 % of control | dose: 12.5 mg/kg/injection, schedule: Q04DX003 (ip), vehicle: Klucel (hydroxypropylcellulose) (HPC) 103 % of control

COc1ccc(C=Nc2ccc(O)cc2)cc1
inactive: [1] 102 % of control | [10] 101 % of control | [3] 100 % of control | [11] 108 % of control | [5] 103 % of control | dose: 400.0 mg/kg/injection, schedule: Q04DX003 (ip), vehicle: saline 101 % of control

CC1=CC2C(C(C)C)CC1C1C(=O)OC(=O)C21 (stereo not given)
inactive: dose: 100.0 mg/kg/injection, schedule: Q04DX002 (ip), vehicle: Klucel (hydroxypropylcellulose) (HPC) 102 % of control | [12] 100 % of control

Oc1ccc(C2CCCCCC2)cc1
inactive: dose: 12.5 mg/kg/injection, schedule: Q01DX001 (ip), vehicle: carboxymethylcellulose (CMC) 97 % of control | dose: 25.0 mg/kg/injection, schedule: Q01DX001 (ip), vehicle: carboxymethylcellulose (CMC) 103 % of control

c1ccc(-n2ncc3ccccc32)cc1
inactive: dose: 50.0 mg/kg/injection, schedule: Q01DX001 (ip), vehicle: saline with Tween-80 100 % of control | dose: 100.0 mg/kg/injection, schedule: Q01DX001 (ip), vehicle: saline with Tween-80 100 % of control | dose: 200.0 mg/kg/injection, schedule: Q01DX001 (ip), vehicle: saline with Tween-80 96 % of control

C[C@]12CC[C@H]3[C@@H](CC[C@@H]4C[C@@H](O)CC[C@@]43C=O)[C@]13O[C@@H]3CC2c1ccc(=O)oc1 (stereo not given in full)
inactive: dose: 0.25 mg/kg/injection, schedule: Q01DX009 (ip), vehicle: Klucel (hydroxypropylcellulose) (HPC) 100 % of control | dose: 0.5 mg/kg/injection, schedule: Q01DX009 (ip), vehicle: Klucel (hydroxypropylcellulose) (HPC) 100 % of control | dose: 1.0 mg/kg/injection, schedule: Q01DX009 (ip), vehicle: Klucel (hydroxypropylcellulose) (HPC) 100 % of control

CCOP(=[Se])(OCC)OCC
inactive: dose: 12.5 mg/kg/injection, schedule: Q01DX009 (ip), vehicle: saline with Tween-80 91 % of control | dose: 25.0 mg/kg/injection, schedule: Q01DX009 (ip), vehicle: saline with Tween-80 107 % of control | [7] 88 % of control

COC(=O)C(OC)(OC)C(OC)OC
inactive: [1] 97 % of control | [3] 103 % of control | [5] 106 % of control

COc1c(Cl)cc([N+](=O)[O-])cc1Cl
inactive: dose: 25.0 mg/kg/injection, schedule: Q01DX009 (ip), vehicle: gum acacia 100 % of control | dose: 50.0 mg/kg/injection, schedule: Q01DX009 (ip), vehicle: gum acacia 106 % of control

O=C(CNCc1ccccc1)c1ccc(Cl)cc1
inactive: dose: 50.0 mg/kg/injection, schedule: Q01DX001 (ip), vehicle: Klucel (hydroxypropylcellulose) (HPC) 93 % of control | dose: 100.0 mg/kg/injection, schedule: Q01DX001 (ip), vehicle: Klucel (hydroxypropylcellulose) (HPC) 96 % of control | dose: 200.0 mg/kg/injection, schedule: Q01DX001 (ip), vehicle: Klucel (hydroxypropylcellulose) (HPC) 93 % of control | dose: 400.0 mg/kg/injection, schedule: Q01DX001 (ip), vehicle: Klucel (hydroxypropylcellulose) (HPC) 93 % of control

C=C(S(=O)(=O)c1ccccc1)S(=O)(=O)c1ccccc1 (tested in a mixture with another compound)
inactive: dose: 10.0 mg/kg/injection, schedule: Q04DX002 (ip), vehicle: Klucel (hydroxypropylcellulose) (HPC) 117 % of control | dose: 20.0 mg/kg/injection, schedule: Q04DX002 (ip), vehicle: Klucel (hydroxypropylcellulose) (HPC) 102 % of control | dose: 40.0 mg/kg/injection, schedule: Q04DX002 (ip), vehicle: Klucel (hydroxypropylcellulose) (HPC) 91 % of control | [12] 86 % of control

CCOC(=O)CN1CCC(C2(c3cc4ccccc4[nH]3)OCCO2)CC1
inactive: dose: 12.0 mg/kg/injection, schedule: Q04DX003 (ip), vehicle: Klucel (hydroxypropylcellulose) (HPC) 91 % of control | dose: 25.0 mg/kg/injection, schedule: Q04DX003 (ip), vehicle: Klucel (hydroxypropylcellulose) (HPC) 89 % of control | dose: 50.0 mg/kg/injection, schedule: Q04DX003 (ip), vehicle: Klucel (hydroxypropylcellulose) (HPC) 100 % of control | [13] 97 % of control | [14] 103 % of control | [15] 101 % of control

CC(C)OC(=O)NCc1cccs1
inactive: dose: 100.0 mg/kg/injection, schedule: Q01DX009 (ip), vehicle: carboxymethylcellulose (CMC) 104 % of control | dose: 200.0 mg/kg/injection, schedule: Q01DX009 (ip), vehicle: carboxymethylcellulose (CMC) 101 % of control | dose: 400.0 mg/kg/injection, schedule: Q01DX009 (ip), vehicle: carboxymethylcellulose (CMC) 104 % of control

C(#CSCc1ccccc1)SCc1ccccc1
inactive: [13] 94 % of control | dose: 100.0 mg/kg/injection, schedule: Q04DX003 (ip), vehicle: Klucel (hydroxypropylcellulose) (HPC) 104 % of control | [14] 96 % of control | dose: 200.0 mg/kg/injection, schedule: Q04DX003 (ip), vehicle: Klucel (hydroxypropylcellulose) (HPC) 102 % of control | [15] 97 % of control | dose: 400.0 mg/kg/injection, schedule: Q04DX003 (ip), vehicle: Klucel (hydroxypropylcellulose) (HPC) 104 % of control

C[As](C)[Se]CC1OC(O)C(O)C(O)C1O (stereo not given)
inactive: [7] 104 % of control

Reference: PubChem BioAssay AID248 (DTP/NCI, 2004)
